Experiment [1] concerns the target T1, human dopamine D1 receptor (Homo sapiens, UniProt P21728).
T1 construct: A 1.4 Kb Hind III to Xho I fragment was subcloned into the vector pMMLV; expressed in transfected cells; host or cells: CHO cells, clone CHO-D1M#9 (plasmid pHD1MMLV), membranes
Briefly: [3H]-SCH-23390 binding to cloned human dopamine D1 receptors (CHO cell membranes). Conditions: competitive binding, [3H]-SCH-23390, cloned human D1 in CHO membranes; read-out: D1 affinity Ki.

The target of experiment [2] is human dopamine D2Long (D2L) receptors (Homo sapiens, UniProt P14416).
The target of experiment [3] is T2, D1 receptor (Homo sapiens, UniProt P21728).
T2 construct: expressed in transfected cells; host or cells: D1 transfected CHO cell line
In words: D1 Activation Adenylyl Cyclase Assay (cAMP FlashPlate, D1 transfected CHO cell line). Format: cell-based. The conditions noted are these: agonist activity at the D1 receptor, adenylate cyclase assay, D1 transfected CHO cell line; read-out: D1 EC50. An outline of the steps:
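D1-transfected CHO cells (50,000/well) were exposed to compound 1/10 serial dilutions for 8 min at RT; cAMP measured by competitive 125I-cAMP FlashPlate against a standard curve. Response normalised between basal and saturating D1 agonist; EC50 at half-maximal stimulation, plateau reported as % maximal dopamine stimulation.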

Where a name gives a salt, the structure may show the parent alone. Some results are limits rather than exact numbers.

Usually Ki stands for a dissociation constant, usually derived from enzyme kinetics or from competition with a known ligand. In general, EC50 refers to the midpoint of the concentration-response curve.

T1 sequence (P21728 whole entry, the tested form may be a part): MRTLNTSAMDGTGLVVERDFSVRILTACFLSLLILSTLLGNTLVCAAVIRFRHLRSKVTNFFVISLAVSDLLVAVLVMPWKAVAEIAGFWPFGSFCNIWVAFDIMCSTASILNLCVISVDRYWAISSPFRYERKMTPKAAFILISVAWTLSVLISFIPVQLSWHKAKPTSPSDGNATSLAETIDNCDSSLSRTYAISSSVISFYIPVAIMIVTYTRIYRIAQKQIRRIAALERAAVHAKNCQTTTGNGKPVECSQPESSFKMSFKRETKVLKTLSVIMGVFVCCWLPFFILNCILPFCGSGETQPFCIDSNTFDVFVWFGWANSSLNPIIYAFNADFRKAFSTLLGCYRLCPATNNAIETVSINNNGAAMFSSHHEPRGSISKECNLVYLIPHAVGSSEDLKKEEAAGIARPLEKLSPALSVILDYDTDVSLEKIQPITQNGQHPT
T2 sequence (P21728 whole entry): as the sequence (P21728 whole entry, the tested form may be a part) above
Chain of human dopamine D2Long (D2L) receptors (P14416 whole entry): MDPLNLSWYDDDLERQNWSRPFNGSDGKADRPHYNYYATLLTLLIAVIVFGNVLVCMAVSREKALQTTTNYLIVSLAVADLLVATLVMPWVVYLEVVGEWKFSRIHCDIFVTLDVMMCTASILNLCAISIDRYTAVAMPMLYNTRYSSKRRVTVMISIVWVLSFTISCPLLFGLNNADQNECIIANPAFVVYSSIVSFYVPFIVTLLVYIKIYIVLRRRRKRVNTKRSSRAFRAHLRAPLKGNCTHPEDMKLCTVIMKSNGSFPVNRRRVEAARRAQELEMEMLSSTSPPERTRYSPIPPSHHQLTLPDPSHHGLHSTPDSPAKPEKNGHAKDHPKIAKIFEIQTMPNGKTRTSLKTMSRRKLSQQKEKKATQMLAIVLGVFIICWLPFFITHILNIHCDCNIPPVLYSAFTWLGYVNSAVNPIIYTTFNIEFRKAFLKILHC

Take `Cc1ccc2c(c1O)C[C@@H](C1CCN(C(=O)Nc3cccc(O)c3)CC1)O[C@H]2CN` [Example 126, 4-((1R,3S)-1-Aminomethyl-5-hydroxy-6-methyl-isochroman-3-yl)-piperidine-1-carboxylic acid (3-hydroxy-phenyl)-amide]: the inhibition constant (Ki) in experiment [1] was 21 nM; in experiment [2] it was 328 nM. The EC50 in experiment [3] amounted to 1.7 nM.

As for `Cc1ccc2c(c1O)C[C@@H](C1CCN(C(=O)Nc3ccc(F)cc3)CC1)O[C@H]2CN` [Example 128, 4-((1R,3S)-1-Aminomethyl-5-hydroxy-6-methyl-isochroman-3-yl)-piperidine-1-carboxylic acid (4-fluoro-phenyl)-amide hydrochloride], the figures for the Ki in experiment [1] and in experiment [2] were 106 nM and at least 10000 nM, respectively. For the same compound, the EC50 in experiment [3] turned out to be 6000 nM.

For the compound `Cc1ccc2c(c1O)C[C@@H](C1CCN(C(=O)Nc3ccccc3F)CC1)O[C@H]2CN` [Example 129, 4-((1R,3S)-1-Aminomethyl-5-hydroxy-6-methyl-isochroman-3-yl)-piperidine-1-carboxylic acid (2-fluoro-phenyl)-amide hydrochloride], the values for the Ki in experiment [1] and in experiment [2] were 113 nM and at least 10000 nM, respectively. The concentration for a half-maximal effect (EC50) in experiment [3] was found to be 2000 nM.

As for `Cc1ccc2c(c1O)C[C@@H](C1CCN(C(=O)N(C)c3ccccc3)CC1)O[C@H]2CN` [Example 131, 4-((1R,3S)-1-Aminomethyl-5-hydroxy-6-methyl-isochroman-3-yl)-piperidine-1-carboxylic acid methyl-phenyl-amide hydrochloride], the figures for the Ki in experiment [1] and in experiment [2] were 51 nM and at least 10000 nM, respectively. For the same compound, the EC50 in experiment [3] is 6.4 nM.

With `Cc1ccc2c(c1O)C[C@@H](C1CCN(C(=O)N3CCCC3)CC1)O[C@H]2CN` [Example 135, [4-((1R,3S)-1-Aminomethyl-5-hydroxy-6-methyl-isochroman-3-yl)-piperidin-1-yl]-pyrrolidin-1-yl-methanone hydrochloride], the Ki in experiment [1] was 61.5 nM; in experiment [2], at least 100000 nM. The EC50 in experiment [3] came out at 2.8 nM.

Regarding `CCCCN(CCCC)C(=O)N1CCC([C@@H]2Cc3c(ccc(C)c3O)[C@H](CN)O2)CC1` [Example 139, 4-((1R,3S)-1-Aminomethyl-5-hydroxy-6-methyl-isochroman-3-yl)-piperidine-1-carboxylic acid dibutylamide hydrochloride], the Ki in experiment [1] is 137 nM; in experiment [2] it was 204 nM. Also, in experiment [3], the 50% effective concentration (EC50) stood at 0.11 nM.

Take `Cc1ccc2c(c1O)C[C@@H](C1CCN(S(=O)(=O)Cc3ccccc3)CC1)O[C@H]2CN` [Example 142, (1R,3S)-1-Aminomethyl-6-methyl-3-(1-phenylmethanesulfonyl-piperidin-4-yl)-isochroman-5-ol hydrochloride]: the inhibitory constant (Ki) in experiment [1] is 18 nM; in experiment [2], at least 100000 nM. In experiment [3], the EC50 was determined as 1.9 nM.

As to `COc1ccc(S(=O)(=O)N2CCC([C@@H]3Cc4c(ccc(C)c4O)[C@H](CN)O3)CC2)cc1OC` [Example 144, (1R,3S)-1-Aminomethyl-3-[1-(3,4-dimethoxy-benzenesulfonyl)-piperidin-4-yl]-6-methyl-isochroman-5-ol hydrochloride], the inhibitory constant (Ki) in experiment [1] is 91 nM; in experiment [2], 602 nM. Also, the EC50 in experiment [3] worked out at 3.6 nM.

Take `Cc1ccc2c(c1O)C[C@@H](C1CCN(S(=O)(=O)c3ccc(C(C)(C)C)cc3)CC1)O[C@H]2CN` [Example 146, (1R,3S)-1-Aminomethyl-3-[1-(4-tert-butyl-benzenesulfonyl)-piperidin-4-yl]-6-methyl-isochroman-5-ol hydrochloride]: the inhibition constant (Ki) in experiment [1] came out at 89 nM; in experiment [2], 531 nM. The EC50 in experiment [3] amounted to 79 nM.

With `Cc1ccc2c(c1O)C[C@@H](C1CCN(S(=O)(=O)c3ccc4ccccc4c3)CC1)O[C@H]2CN` [Example 147, (1R 3S)-1-Aminomethyl-6-methyl-3-[1-(naphthalene-2-sulfonyl)-piperidin-4-yl]-isochroman-5-ol hydrochloride], the Ki turned out to be 108 nM in experiment [1] and 623 nM in experiment [2]. In addition, the EC50 in experiment [3] came out at 394 nM.

For the compound `Cc1ccc2c(c1O)C[C@@H](C1CCN(S(=O)(=O)c3cc(Cl)ccc3Cl)CC1)O[C@H]2CN` [Example 151, (1R,3S)-1-Aminomethyl-3-[1-(2,5-dichloro-benzenesulfonyl)-piperidin-4-yl]-6-methyl-isochroman-5-ol hydrochloride], the values for the Ki in experiment [1] and in experiment [2] were 82 nM and at least 100000 nM, respectively. Moreover, the 50% effective concentration (EC50) in experiment [3] worked out at 58 nM.

`Cc1ccc2c(c1O)C[C@@H](C1CCN(S(=O)(=O)CC(F)(F)F)CC1)O[C@H]2CN` [Example 157, (1R,3S)-1-Aminomethyl-6-methyl-3-[1-(2,2,2-trifluoro-ethanesulfonyl)-piperidin-4-yl]-isochroman-5-ol hydrochloride]: the Ki amounted to 2.07 nM in experiment [1] and 434 nM in experiment [2]. The EC50 in experiment [3] stood at 460 nM.

Take `Cc1ccc2c(c1O)C[C@@H](C1CCN(S(=O)(=O)Cc3ccccc3[N+](=O)[O-])CC1)O[C@H]2CN` [Example 158, (1R,3S)-1-Aminomethyl-6-methyl-3-[1-(2-nitro-phenylmethanesulfonyl)-piperidin-4-yl]-isochroman-5-ol hydrochloride]: the inhibitory constant (Ki) in experiment [1] is 95.2 nM; in experiment [2], at least 100000 nM. Also, the EC50 in experiment [3] was 11 nM.

Take `Cc1ccc2c(c1O)C[C@@H](C1CCN(S(=O)(=O)CCc3cccc4ccccc34)CC1)O[C@H]2CN` [Example 159, (1R,3S)-1-Aminomethyl-6-methyl-3-[1-(2-naphthalen-1-yl-ethanesulfonyl)-piperidin-4-yl]-isochroman-5-ol hydrochloride]: the inhibition constant Ki in experiment [1] is 64.5 nM; in experiment [2], at least 100000 nM. The EC50 in experiment [3] was determined as 35 nM.

For `Cc1ccc2c(c1O)C[C@@H](C1CCN(S(=O)(=O)N3CCc4ccccc4C3)CC1)O[C@H]2CN` [Example 167, (1R,3S)-1-Aminomethyl-3-[1-(3,4-dihydro-1H-isoquinoline-2-sulfonyl)-piperidin-yl]-6-methyl-isochroman-5-ol hydrochloride], the inhibition constant (Ki) in experiment [1] is 74 nM; in experiment [2], 528 nM. Moreover, the EC50 in experiment [3] came to 77 nM.

As for `CCNC[C@@H]1O[C@H](C2CCN(CC(=O)c3ccccc3)CC2)Cc2c1ccc(C)c2O` [Example 179, 2-[4-((1R,3S)-1-Ethylaminomethyl-5-hydroxy-6-methyl-isochroman-3-yl)-piperidin-1-yl]-1-phenyl-ethanone], the inhibition constant (Ki) was 139 nM in experiment [1] and 215 nM in experiment [2]. In addition, the concentration for a half-maximal effect (EC50) in experiment [3] amounted to 810 nM.

On to `Cc1ccc2c(c1O)C[C@@H](C1CCN(CCNC(=O)c3ccc(F)cc3)CC1)O[C@H]2CN` [Example 189, N-{2-[4-((1R,3S)-1-Aminomethyl-5-hydroxy-6-methylisochroman-3-yl)-piperidin-1-yl]ethyl}-4-fluorobenzamide dihydrobromide], for which the Ki in experiment [1] was 312 nM; in experiment [2], 61 nM. Moreover, the EC50 in experiment [3] was 270 nM.

In the case of `Cc1ccc2c(c1O)C[C@@H](C1CCN(CCNC(=O)c3ccccc3)CC1)O[C@H]2CN` [Example 191, N-{2-[4-((1R,3S)-1-Aminomethyl-5-hydroxy-6-methylisochroman-3-yl)-piperidin-1-yl]-ethyl}benzamide dihydrobromide], the Ki amounted to 276 nM in experiment [1] and 415 nM in experiment [2]. Also, the EC50 in experiment [3] turned out to be 180 nM.

Regarding `Cc1ccc2c(c1O)C[C@@H](C1CCN(CCNC(=O)Nc3ccc(F)cc3)CC1)O[C@H]2CN` [Example 192, (1R,3S)-1-{2-[4-(1-Aminomethyl-5-hydroxy-6-methyl-isochroman-3-yl)-piperidin-1-yl]ethyl}-3-(4-fluoro-phenyl)urea dihydrobromide], the Ki was determined as 77 nM in experiment [1] and 477 nM in experiment [2]. The EC50 in experiment [3] is 11 nM.

With `Cc1ccc2c(c1O)C[C@@H](C1CCN(CCNC(=O)Nc3ccccc3)CC1)O[C@H]2CN` [Example 193, 1-{2-[4-((1R,3S)-1-Aminomethyl-5-hydroxy-6-methyl-isochroman-3-yl)piperidin-1-yl]-ethyl}-3-phenylurea dihydrobromide], the Ki in experiment [1] was found to be 50 nM; in experiment [2], 284 nM. For the same compound, the EC50 in experiment [3] stood at 43 nM.

With `CCC(CN1CCC([C@@H]2Cc3c(ccc(C)c3O)[C@H](CNC)O2)CC1)c1ccccc1` (stereo partly drawn) [Example 194, (1R,3S)-6-Methyl-1-methylaminomethyl-3-[1-(2-phenylbutyl)-piperidin-4-yl]isochroman-5-ol dihydrochloride], the results for the Ki in experiment [1] and in experiment [2] were 54 nM and 639 nM, respectively. Further, the EC50 in experiment [3] was 34 nM.

The record behind these values is patent publication US7919508B2, “3-piperidinylisochroman-5-ols as dopamine agonists” (Aventis Pharmaceuticals Inc., priority 2004, dated 2011).
